Literature values in US20050215536A1, “Sequential SPRM/ progestin treatment” (priority 2004, published 2005).

Assays:
[1] = premenopausal women
progesterone receptor = biological target: T1, progesterone receptor (Oryctolagus cuniculus, UniProt P06186); conditions: for McPhail score: rabbit model, scale of 0-4; for agonist activity in the McPhail bioassay: rabbits
T1 construct: SPRMs score lower than progesterone in the McPhail bioassay in rabbits; from tissue; host or cells: live rabbit
T1 sequence (P06186 1-930): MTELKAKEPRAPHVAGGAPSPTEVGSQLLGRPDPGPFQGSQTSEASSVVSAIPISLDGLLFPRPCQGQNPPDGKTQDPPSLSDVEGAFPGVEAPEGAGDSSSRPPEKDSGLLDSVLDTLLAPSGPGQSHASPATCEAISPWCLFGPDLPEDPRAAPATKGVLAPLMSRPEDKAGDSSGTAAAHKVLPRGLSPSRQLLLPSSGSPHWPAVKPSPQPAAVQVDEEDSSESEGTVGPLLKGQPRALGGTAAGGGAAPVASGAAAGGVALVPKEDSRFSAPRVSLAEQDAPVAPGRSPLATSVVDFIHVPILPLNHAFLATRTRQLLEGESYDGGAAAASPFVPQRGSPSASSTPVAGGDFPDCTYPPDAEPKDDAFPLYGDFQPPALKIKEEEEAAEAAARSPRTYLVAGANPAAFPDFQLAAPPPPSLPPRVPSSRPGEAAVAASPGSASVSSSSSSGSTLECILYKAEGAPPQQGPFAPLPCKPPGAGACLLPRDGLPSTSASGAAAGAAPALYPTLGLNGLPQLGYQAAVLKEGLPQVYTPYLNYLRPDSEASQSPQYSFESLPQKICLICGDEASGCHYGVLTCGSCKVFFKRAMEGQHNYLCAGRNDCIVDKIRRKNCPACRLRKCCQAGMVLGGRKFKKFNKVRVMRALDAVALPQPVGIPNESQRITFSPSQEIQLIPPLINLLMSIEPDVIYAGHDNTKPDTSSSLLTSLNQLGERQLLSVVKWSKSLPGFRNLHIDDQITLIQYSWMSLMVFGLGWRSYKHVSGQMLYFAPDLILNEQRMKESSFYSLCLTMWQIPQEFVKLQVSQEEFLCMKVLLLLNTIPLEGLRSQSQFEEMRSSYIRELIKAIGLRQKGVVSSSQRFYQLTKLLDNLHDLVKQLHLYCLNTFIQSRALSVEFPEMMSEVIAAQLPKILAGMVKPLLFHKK

Row | McPhail score (progesterone receptor) | agonist activity in the McPhail bioassay (progesterone receptor) | SMILES | withdrawal bleeding (start of spontaneous menstrual cycle), time after stopping the SPRM treatment ([1]; all subjects, latest occurrence) | resumption of menstruation, time after cessation of treatment ([1]; majority of subjects)
1 | – | – | COC[C@]1(OC)CC[C@H]2[C@@H]3CCC4=CC(=O)CCC4=C3[C@@H](c3ccc(/C=N/O)cc3)C[C@@]21C [J867, 4-[17β-Methoxy-17α-(methoxymethyl)-3-oxoestra-4,9-dien-11β-yl]benzaldehyd-(1E)-oxim] | up to 90 days | ≤ 30 days
2 | less than 0.5 | do not show any agonist activity | CC#C[C@]1(O)CC[C@H]2[C@@H]3CCC4=CC(=O)CCC4=C3[C@@H](c3ccc(N(C)C)cc3)C[C@@]21C [RU486, mifepristone] | – | –
3 | – | do not show any agonist activity | CN(C)c1ccc([C@H]2C[C@]3(C)[C@@H](CC[C@]3(O)CCCO)[C@@H]3CCC4=CC(=O)CCC4=C32)cc1 [onapristone] | – | –
4 | 4 | – | CC(=O)[C@H]1CC[C@H]2[C@@H]3CCC4=CC(=O)CC[C@]4(C)[C@H]3CC[C@]12C [progesterone] | – | –
